Data as given in ChEMBL document CHEMBL1821550 (Bioorg Med Chem Lett, 2011).

Assay: physchem
Conditions: octanol/water

Row | SMILES | logD
1 | Cc1cc(-c2ccc3cc(CCN4CCC[C@H]4C)ccc3n2)nc(-c2ccccc2)n1 | 4.2
2 | COc1ncc(-c2ccc3cc(CCN4CCC[C@H]4C)ccc3n2)cn1 | 2.4
3 | C[C@@H]1CCCN1CCc1ccc2nc(-c3ccccn3)ccc2c1 | 2.9
4 | Cc1nc(-c2cccnc2)sc1-c1ccc2cc(CCN3CCC[C@H]3C)ccc2n1 | 3.5
5 | C[C@@H]1CCCN1CCc1ccc2nc(-c3ccc4nccnc4c3)ccc2c1 | 3.1
6 | C[C@@H]1CCCN1CCc1ccc2nc(-c3ccc4c(c3)COCO4)ccc2c1 | 3.2
7 | C[C@@H]1CCCN1CCc1ccc2nc(-c3nc4ccccc4s3)ccc2c1 | 4.1
8 | Cc1c(-c2ccc3cc(CCN4CCC[C@H]4C)ccc3n2)sc2ncnn12 | 2.8
9 | C[C@@H]1CCCN1CCc1ccc2nc(-c3cn4c(n3)SCC4)ccc2c1 | 3.1
10 | Cc1nc2ccccn2c1-c1ccc2cc(CCN3CCC[C@H]3C)ccc2n1 | 3.2
11 | C[C@@H]1CCCN1CCc1ccc2nc(-c3ccn4ncnc4n3)ccc2c1 | 2.5
12 | Cc1c(-c2ccc3cc(CCN4CCC[C@H]4C)ccc3n2)sc2nc3ccccc3n12 | 4.5
13 | C[C@@H]1CCCN1CCc1ccc2nc(-c3ccc(N4CCCCC4)cc3)ccc2c1 | 3.1
14 | CC1CCN(c2ccc3cc(CCN4CCC[C@H]4C)ccc3n2)CC1 | 2.9
15 | Cc1onc(-c2ccc(Cl)cc2)c1-c1ccc2cc(CCN3CCC[C@H]3C)ccc2n1 | 4.9
16 | C[C@@H]1CCCN1CCc1ccc2nc(-c3c(-c4ccccc4)nn(C)c3Cl)ccc2c1 | 4.7
17 | Cc1onc(-c2ccccc2)c1-c1ccc2cc(CCN3CCC[C@H]3C)ccc2n1 | 4.2
18 | Cc1nc(-c2cnccn2)sc1-c1ccc2cc(CCN3CCC[C@H]3C)ccc2n1 | 2.7
19 | Cc1c(-c2ccc(Cl)cc2)noc1-c1ccc2cc(CCN3CCC[C@H]3C)ccc2n1 | 5.5
20 | Cc1nc(-c2ccncc2)sc1-c1ccc2cc(CCN3CCC[C@H]3C)ccc2n1 | 3.5
21 | Cc1nc(-c2ccccn2)sc1-c1ccc2cc(CCN3CCC[C@H]3C)ccc2n1 | 3.9
22 | Cc1nc(-c2nc(-c3ccc4cc(CCN5CCC[C@H]5C)ccc4n3)cs2)cs1 | 3.6

Row | SMILES | logD
23 | Cc1cc(-c2nc(-c3ccc4cc(CCN5CCC[C@H]5C)ccc4n3)cs2)no1 | 3.5
24 | C[C@@H]1CCCN1CCc1ccc2nc(-c3cnc4c(c3)OCO4)ccc2c1 | 2.8
25 | Cc1nc(-c2cccs2)sc1-c1ccc2cc(CCN3CCC[C@H]3C)ccc2n1 | 4.6
26 | C[C@@H]1CCCN1CCc1ccc2nc(-c3ccc(C#N)s3)ccc2c1 | 3.8
27 | C[C@@H]1CCCN1CCc1ccc2nc(-c3cnc(-c4ccccc4)s3)ccc2c1 | 4.3
28 | C[C@@H]1CCCN1CCc1ccc2nc(-c3ccc(-n4ccc(=O)cc4)cc3)ccc2c1 | 3.4
29 | CCOC(=N)c1ccc(-c2ccc3cc(CCN4CCC[C@H]4C)ccc3n2)s1 | 4.1
30 | O=C(C1CC(Oc2cccc(F)c2)CN1)N1CCCN(C2CCC2)CC1 (stereo unspecified) | 0.2
31 | O=C(C1CC(Oc2cccc(Cl)c2)CN1)N1CCCN(C2CCC2)CC1 (stereo unspecified) | 0.6
32 | O=C(C1CC(Oc2ccc(F)cc2)CN1)N1CCCN(C2CCC2)CC1 (stereo unspecified) | 0.2
33 | O=C(C1CC(Oc2ccc(Cl)cc2)CN1)N1CCCN(C2CCC2)CC1 (stereo unspecified) | 0.6
34 | N#Cc1ccc(OC2CNC(C(=O)N3CCCN(C4CCC4)CC3)C2)cc1 (stereo unspecified) | -0.2
35 | N#Cc1ccc(OC2CNC(C(=O)N3CCCN(C4CCCC4)CC3)C2)cc1 (stereo unspecified) | 0.6
36 | O=C(C1CC(Oc2ccc(F)cc2)CN1)N1CCCN(C2CCCC2)CC1 (stereo unspecified) | 0.9
37 | COC(=O)N1CC(Oc2cccc(F)c2)CC1C(=O)N1CCCN(C2CCC2)CC1 (stereo unspecified) | 1.8
38 | COC(=O)N1CC(Oc2ccc(F)cc2)CC1C(=O)N1CCCN(C2CCC2)CC1 (stereo unspecified) | 1.8
39 | CCCNS(=O)(=O)c1ccc(-c2ccc(CCN3CCC[C@H]3C)cc2)cc1 | 2.8
40 | CCC(CO)NS(=O)(=O)c1ccc(-c2ccc(CCN3CCC[C@H]3C)cc2)cc1 (stereo partly specified) | 2.3
41 | C[C@@H]1CCCN1CCc1ccc(-c2ccc(S(=O)(=O)N3CCC(O)C3)cc2)cc1 (stereo partly specified) | 1.5
42 | COCC1CCCN1S(=O)(=O)c1ccc(-c2ccc(CCN3CCC[C@H]3C)cc2)cc1 (stereo partly specified) | 2.5
43 | C[C@H]1[C@H](c2ccc(OCCCN3CCCC3)cc2)Oc2ccccc2S1(=O)=O | 2.2
44 | Cc1nc(N2CCCC2)ncc1-c1ccc2cc(CCN3CCC[C@H]3C)ccc2n1 | 2.7

Row | SMILES | logD
45 | Cc1nc2ncccc2cc1-c1ccc2cc(CCN3CCC[C@H]3C)ccc2n1 | 3.1
46 | Cc1cc2ncc(-c3ccc4cc(CCN5CCC[C@H]5C)ccc4n3)c(C)n2n1 | 2.5
47 | Cc1nc2ccccc2c(=O)n1-c1ccc(OCCCN2CCCC2)cc1 | 1.7
48 | CCc1nc2ccccc2c(=O)n1-c1ccc(OCCCN2CCCC2)cc1 | 2.4
49 | CC(C)c1nc2ccccc2c(=O)n1-c1ccc(OCCCN2CCCC2)cc1 | 2.8
50 | O=c1c2ccccc2nc(-c2ccccc2)n1-c1ccc(OCCCN2CCCC2)cc1 | 3.4
51 | Cc1cccc2nc(C)n(-c3ccc(OCCCN4CCCC4)cc3)c(=O)c12 | 2.2
52 | CCCc1nc2ccccc2c(=O)n1-c1ccc(OCCCN2CCCC2)cc1 | 2.8
53 | O=c1c2ccccc2ncn1-c1ccc(OCCCN2CCCC2)cc1 | 1.6
54 | CC[C@@H]1Sc2ccccc2O[C@@H]1c1ccc(OCCCN2CCCC2)cc1 | 3.8
55 | COc1cccc2c1S(=O)(=O)C(C)C(c1ccc(OCCCN3CCCC3)cc1)O2 (stereo unspecified) | 2.2
56 | COc1cccc2c1OC(c1ccc(OCCCN3CCCCC3)cc1)C(C)S2(=O)=O (stereo unspecified) | 2.7
57 | C[C@H]1Sc2ccccc2O[C@@H]1c1ccc(OCCCN2CCCC2)cc1 | 3.3
58 | COCCNS(=O)(=O)c1ccc(-c2ccc(CCN3CCC[C@H]3C)cc2)cc1 | 1.8
59 | COc1cccc2c1OC(c1ccc(OCCCN3CCC[C@H](C)C3)cc1)C(C)S2(=O)=O (stereo partly specified) | 3.3
60 | C[C@@H]1CCCN1CCc1ccc(-c2ccc(S(=O)(=O)Nc3ccccc3)cc2)cc1 | 3.5
61 | COC1CCN(S(=O)(=O)c2ccc(-c3ccc(CCN4CCC[C@H]4C)cc3)cc2)CC1 | 2
62 | CC1=C(c2ccc(OCCCN3CCCC3)cc2)Oc2ccccc2S1(=O)=O | 1.9
63 | C[C@@H]1Sc2ccccc2O[C@@H]1c1ccc(OCCCN2CCCC2)cc1 | 3.3
64 | C[C@@H]1CCCN1CCc1ccc(-c2ccc(S(=O)(=O)NCC3CC3)cc2)cc1 | 2.8
65 | C[C@@H]1CCCN1CCc1ccc(-c2ccc(S(=O)(=O)NCc3ccccc3)cc2)cc1 | 3.6
66 | C[C@@H]1CCCN1CCc1ccc(-c2ccc(S(=O)(=O)NCc3ccncc3)cc2)cc1 | 2.4

Row | SMILES | logD
67 | C[C@@H]1CCCN1CCc1ccc(-c2ccc(S(N)(=O)=O)cc2)cc1 | 1.8
68 | C[C@@H]1CCCN1CCc1ccc(-c2ccc(S(=O)(=O)NC3CCOCC3)cc2)cc1 | 1.8
69 | C[C@@H]1CCCN1CCc1ccc(-c2ccc(S(=O)(=O)N3CCS(=O)(=O)CC3)cc2)cc1 | 1.6
70 | COc1cccc2c1OC(c1ccc(OCCCN3CCC[C@H]3C)cc1)C(C)S2(=O)=O (stereo partly specified) | 2.6
71 | CC1COCC(C)N1S(=O)(=O)c1ccc(-c2ccc(CCN3CCC[C@H]3C)cc2)cc1 (stereo partly specified) | 2.6
72 | COc1ccc2c(c1)OC(c1ccc(OCCCN3CCCC3)cc1)C(C)S2(=O)=O (stereo unspecified) | 2.2
73 | C[C@@H]1CCCN1CCc1ccc(-c2ccc(S(=O)(=O)N3CCCCC3)cc2)cc1 | 3.1
74 | COc1cccc2c1OC(c1ccc(OC3CCN(C4CCC4)CC3)cc1)C(C)S2(=O)=O (stereo unspecified) | 3.3
75 | C[C@@H]1CCCN1CCc1ccc(-c2ccc(S(=O)(=O)NC3CCC3)cc2)cc1 | 2.9
76 | COc1cccc2c1OC(c1ccc(OCCCN3CCC[C@@H]3C)cc1)C(C)S2(=O)=O (stereo partly specified) | 2.6
77 | C[C@@H]1CCCN1CCc1ccc(-c2ccc(S(=O)(=O)N3CCOCC3)cc2)cc1 | 1.9
78 | c1ccc([C@@H]2Sc3ccccc3O[C@@H]2c2ccc(OCCCN3CCCC3)cc2)cc1 | 4.5
79 | COc1ccc2c(c1)S(=O)(=O)C(C)C(c1ccc(OCCCN3CCCC3)cc1)O2 (stereo unspecified) | 2.2
80 | CCNS(=O)(=O)c1ccc(-c2ccc(CCN3CCC[C@H]3C)cc2)cc1 | 2.3
81 | Cc1ccc(-c2cc3sc(N4CCC(N5CCCCC5)CC4)nc3cn2)cn1 | 1.4
82 | N#Cc1cncc(-c2cc3sc(N4CCC(N5CCCCC5)CC4)nc3cn2)c1 | 1
83 | COc1cc(-c2cnc3nc(N4CCC(N5CCCCC5)CC4)sc3c2)ccn1 | 1.4
84 | COc1ccc(-c2cnc3nc(N4CCC(N5CCCCC5)CC4)sc3c2)cn1 | 1.4
85 | Nc1cnc(-c2cnc3nc(N4CCC(N5CCCCC5)CC4)sc3c2)cn1 | -0.1
86 | Cc1ccc(-c2cnc3nc(N4CCC(N5CCCCC5)CC4)sc3c2)cn1 | 1.2
87 | CC(=O)Nc1ccc(-c2cnc3nc(N4CCC(N5CCCCC5)CC4)sc3c2)cn1 | 0.6
88 | O=c1ccc(-c2cnc3nc(N4CCC(N5CCCCC5)CC4)sc3c2)c[nH]1 | 1.2

Row | SMILES | logD
89 | Fc1cc(-c2cc3sc(N4CCC(N5CCCCC5)CC4)nc3cn2)ccn1 | 1.7
90 | Fc1ccc(-c2cnc3nc(N4CCC(N5CCCCC5)CC4)sc3c2)cn1 | 1.5
91 | COc1cc(-c2cc3sc(N4CCC(N5CCCCC5)CC4)nc3cn2)ccn1 | 1.6
92 | Fc1ccc(-c2cc3sc(N4CCC(N5CCCCC5)CC4)nc3cn2)cn1 | 1.7
93 | c1ncc(-c2cc3sc(N4CCC(N5CCCCC5)CC4)nc3cn2)cn1 | 0.5
94 | Nc1ccc(-c2cnc3nc(N4CCC(N5CCCCC5)CC4)sc3c2)cn1 | 0.7
95 | Nc1cnc(-c2cc3sc(N4CCC(N5CCCCC5)CC4)nc3cn2)cn1 | 0.2
96 | Clc1cc2sc(N3CCC(N4CCCCC4)CC3)nc2cn1 | 1.2
97 | Fc1ncccc1-c1cnc2nc(N3CCC(N4CCCCC4)CC3)sc2c1 | 1.5
98 | c1ncc(-c2cnc3nc(N4CCC(N5CCCCC5)CC4)sc3c2)cn1 | 0.3
99 | COc1ccc(-c2cc3sc(N4CCC(N5CCCCC5)CC4)nc3cn2)cn1 | 1.6
100 | Nc1ccc(-c2cc3sc(N4CCC(N5CCCCC5)CC4)nc3cn2)cn1 | 0.9
101 | CC(=O)Nc1ccc(-c2cc3sc(N4CCC(N5CCCCC5)CC4)nc3cn2)cn1 | 0.8
102 | Oc1ccc(-c2cc3sc(N4CCC(N5CCCCC5)CC4)nc3cn2)cn1 | 1.4
103 | N#Cc1cncc(-c2cnc3nc(N4CCC(N5CCCCC5)CC4)sc3c2)c1 | 0.8
104 | Fc1ncccc1-c1cc2sc(N3CCC(N4CCCCC4)CC3)nc2cn1 | 1.7
105 | Fc1cc(-c2cnc3nc(N4CCC(N5CCCCC5)CC4)sc3c2)ccn1 | 1.5
106 | N#Cc1cc(-c2cnc3nc(N4CCC(N5CCCCC5)CC4)sc3c2)ccc1F | 2.1
